ChEMBL document CHEMBL4270652, “Design, synthesis, and biological activity of substituted 2-amino-5-oxo-5H-chromeno[2,3-b]pyridine-3-carboxylic acid derivatives as inhibitors of the inflammatory kinases TBK1 and IKKε for the treatment of obesity” (Bioorg Med Chem, 2018)
In brackets after ≈: the same amount, converted by molar mass. Activity calls are given as the source filed them. The rule behind the calls is not given here.

How the values were obtained:
physchem = conditions: PBS, pH 7.4
Description: Thermodynamic aqueous solubility in PBS of pH 7.4 after overnight incubation by chemiluminescent nitrogen detection

Mus musculus [1] = test: Antidiabetic activity in C57BL/6 obese mouse model assessed as reduction in blood glucose level at 25 mg/kg administered daily via oral gavage measured post 3 weeks of treatment by glucose tolerance test; format: functional, organism-based
Mus musculus [2] = test: Antiobesity activity in C57BL/6 obese mouse model assessed as body weight loss at 25 mg/kg administered daily via oral gavage measured post 4 weeks of treatment; format: functional, organism-based
Mus musculus [3] = test: Induction of insulin-induced hypoglycemia in C57BL/6 obese mouse model at 25 mg/kg administered daily via oral gavage measured post 4 weeks of treatment by insulin tolerance test; format: functional, organism-based
Mus musculus [4] = test: Increase in serum IL6 levels in C57BL/6 obese mouse model at 25 mg/kg administered via oral gavage measured 6 hrs post treatment by ELISA; format: functional, organism-based

SMILES	solubility thermodynamic (physchem)	further results
CC(C)CCc1ccc2oc3nc(N)c(C(=O)O)cc3c(=O)c2c1	119 µM (≈ 38.8 µg/mL)	–
CC(C)Cc1ccc2oc3nc(N)c(C(=O)O)cc3c(=O)c2c1	179 µM (≈ 55.8 µg/mL)	–
Nc1nc2oc3ccc(C4CCCCC4)cc3c(=O)c2cc1C(=O)O	94.4 µM (≈ 31.9 µg/mL)	Activity (Mus musculus [1]): Active; Activity (Mus musculus [2]): Active; Activity (Mus musculus [3]): Active; Activity (Mus musculus [4]): Active
CC(C)c1ccc2c(=O)c3cc(C(=O)O)c(N)nc3oc2c1	19.1 µM (≈ 5.7 µg/mL)	–
CC(C)c1ccc2oc3nc(N)c(C(=O)O)cc3c(=O)c2c1	–	Activity (Mus musculus [1]): Active; Activity (Mus musculus [3]): Active; Activity (Mus musculus [4]): Active
CC(=O)N1CCC(c2ccc3oc4nc(N)c(C(=O)O)cc4c(=O)c3c2)CC1	121 µM (≈ 46 µg/mL)	–
Nc1nc2oc3ccc(C4CCC(=O)CC4)cc3c(=O)c2cc1C(=O)O	< 1.1 µM	–
CN(C)c1ccc2oc3nc(N)c(C(=O)O)cc3c(=O)c2c1	76.8 µM (≈ 23 µg/mL)	–
CC(C)c1cc2c(=O)c3cc(C(=O)O)c(N)nc3oc2cn1	77.9 µM (≈ 23.3 µg/mL)	–
Nc1nc2oc3ccc(C4CCSCC4)cc3c(=O)c2cc1C(=O)O	61.3 µM (≈ 21.8 µg/mL)	–
CC(C)c1cccc2oc3nc(N)c(C(=O)O)cc3c(=O)c12	229 µM (≈ 68.4 µg/mL)	–
CC(C)c1cc2c(=O)c3cc(C(=O)O)c(N)nc3oc2cc1F	13.7 µM (≈ 4.33 µg/mL)	–
